This is an account of results in article PMC8053042 (Cell chemical biology, 2020).

The test has as its target T1, Doublecortin-like kinase 1 (DCLK1) (Homo sapiens, UniProt O15075).
T1 sequence (O15075 390-647 limits assumed): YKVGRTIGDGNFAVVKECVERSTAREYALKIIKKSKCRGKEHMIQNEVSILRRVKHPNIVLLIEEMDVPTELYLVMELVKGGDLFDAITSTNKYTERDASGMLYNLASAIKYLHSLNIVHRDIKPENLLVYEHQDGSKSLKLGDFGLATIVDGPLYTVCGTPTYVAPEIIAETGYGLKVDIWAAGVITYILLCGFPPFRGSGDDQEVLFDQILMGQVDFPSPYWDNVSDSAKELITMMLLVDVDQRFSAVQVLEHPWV
Description: peptide substrate mobility shift kinase assay with purified DCLK1 WT. The test is classed as biochemical.

As to `COc1cc(N2CCN(C)CC2)ccc1Nc1ncc2c(n1)N(C)c1ccccc1C(=O)N2CC(F)(F)F` [DCLK1-IN-1], the IC50 came out at 0.055 µM.
